Results: patent US7960129B2, “Assays and methods for determining STIM2 activity” (The Queen's Medical Center, priority 2007, dated 2011)
Where two headings read alike, the source gives them in different places.

How the values were obtained:
[1] = target: T1, STIM2+CRACM1-expressing HEK293 cells (Homo sapiens, UniProt Q9P246); test: Whole-cell patch-clamp of CRAC currents in STIM2+CRACM1 cells; assay type: cell-based; settings: for suppression of the secondary phase of CRAC current: added to pipette solution: ATP 3 mM, GTP 0.3 mM, calmodulin 100 μM, [Ca2+]i 150 nM
T1 construct: expressed in transfected cells; host or cells: HEK293
Protocol: Patch-clamp experiments were performed in the tight-seal whole-cell configuration at 21-25° C. High-resolution current recordings were acquired using the EPC-9 (HEKA). Voltage ramps of 50 ms duration spanning a range of −100 to +100 mV were delivered from a holding potential of 0 mV at a rate of 0.5 Hz over a period of 100-700 sec. All voltages were corrected for a liquid junction potential of 10 mV (3 mV with Cl^− as main internal anion). Currents were filtered at 2.9 kHz and digitized at 100 μs intervals. Capacitive currents were determined and corrected before each voltage ramp. Extracting the current amplitude at −80 mV from individual ramp current records assessed the low-resolution temporal development of currents. Where applicable, statistical errors of averaged data are given as means±S.E.M. with n determinations. Standard external solutions were as follows (in mM): 120 NaCl, 10 CsCl, 2.8 KCl, 2 MgCl2, 10 CaCl2, 10 TEA-Cl, 10 HEPES, 10 glucose, pH 7.2 with NaOH, 300 mOsm. In some experiments, 2 μM or 50 μM 2-aminoethyldiphenyl borate (2-APB) or 10 μM G418 were added to the standard external solution and applied through wide-tipped puffer pipettes. Standard internal solutions were as follows (in mM): 120 Cs-glutamate, 8 NaCl, 10 Cs-BAPTA, 3 MgCl2, 10 HEPES, 0.02 IP3, pH 7.2 with CsOH, 300 mOsm. As indicated in the figure legends, for some experiments [Ca^2+]i was buffered to 150 nM by 20 mM Cs•BAPTA and 8 mM CaCl2 or 20 mM Cs•EGTA and 8.9 mM CaCl2. For passive-depletion experiments, the internal solution was supplemented with Cs•BAPTA in the absence of IP3 and Ca^2+. In some experiments, Cs-glutamate and Cs•BAPTA were equimolarly replaced by KCl and K•BAPTA. In others, G418, Na•ATP and Na•GTP or calmodulin were added to intracellular solutions as specified in the figure legends. All chemicals were purchased from Sigma-Aldrich Co.

[2] = test system: CRAC currents; settings: cited from earlier work; for doses that inhibit CRAC currents: high doses
[3] = target: T2, STIM1+CRACM1-expressing HEK293 cells (Homo sapiens, UniProt Q13586+Q96D31); test: Whole-cell patch-clamp of CRAC currents in STIM1+CRACM1 cells; assay type: cell-based; settings: 50 μM 2-APB; no IP3, [Ca2+]i buffered to 150 nM
T2 construct: expressed in transfected cells; host or cells: HEK293
Protocol: Patch-clamp experiments were performed in the tight-seal whole-cell configuration at 21-25° C. High-resolution current recordings were acquired using the EPC-9 (HEKA). […] Currents were filtered at 2.9 kHz and digitized at 100 μs intervals. Capacitive currents were determined and corrected before each voltage ramp. Extracting the current amplitude at −80 mV from individual ramp current records assessed the low-resolution temporal development of currents. […] All chemicals were purchased from Sigma-Aldrich Co.

T1 sequence (Q9P246 15-746): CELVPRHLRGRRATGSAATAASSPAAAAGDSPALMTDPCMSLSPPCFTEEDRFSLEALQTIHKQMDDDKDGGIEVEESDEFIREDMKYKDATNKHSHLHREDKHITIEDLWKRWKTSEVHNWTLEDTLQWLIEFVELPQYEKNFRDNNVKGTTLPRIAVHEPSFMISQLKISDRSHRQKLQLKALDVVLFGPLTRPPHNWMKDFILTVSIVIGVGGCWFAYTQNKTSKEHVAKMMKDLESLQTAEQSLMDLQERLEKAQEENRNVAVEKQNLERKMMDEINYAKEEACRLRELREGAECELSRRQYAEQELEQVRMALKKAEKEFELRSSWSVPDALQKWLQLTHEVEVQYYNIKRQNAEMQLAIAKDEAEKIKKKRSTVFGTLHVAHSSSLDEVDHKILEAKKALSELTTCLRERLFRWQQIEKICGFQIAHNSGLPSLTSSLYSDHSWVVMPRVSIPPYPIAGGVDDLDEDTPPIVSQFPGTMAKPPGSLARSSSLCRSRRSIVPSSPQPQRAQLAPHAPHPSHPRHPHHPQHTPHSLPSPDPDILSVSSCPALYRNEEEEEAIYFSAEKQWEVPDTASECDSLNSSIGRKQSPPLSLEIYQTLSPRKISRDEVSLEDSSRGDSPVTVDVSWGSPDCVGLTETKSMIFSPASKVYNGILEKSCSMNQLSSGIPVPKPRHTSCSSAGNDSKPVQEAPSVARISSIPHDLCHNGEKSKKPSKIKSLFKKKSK
T2 sequence (Q13586 23-685): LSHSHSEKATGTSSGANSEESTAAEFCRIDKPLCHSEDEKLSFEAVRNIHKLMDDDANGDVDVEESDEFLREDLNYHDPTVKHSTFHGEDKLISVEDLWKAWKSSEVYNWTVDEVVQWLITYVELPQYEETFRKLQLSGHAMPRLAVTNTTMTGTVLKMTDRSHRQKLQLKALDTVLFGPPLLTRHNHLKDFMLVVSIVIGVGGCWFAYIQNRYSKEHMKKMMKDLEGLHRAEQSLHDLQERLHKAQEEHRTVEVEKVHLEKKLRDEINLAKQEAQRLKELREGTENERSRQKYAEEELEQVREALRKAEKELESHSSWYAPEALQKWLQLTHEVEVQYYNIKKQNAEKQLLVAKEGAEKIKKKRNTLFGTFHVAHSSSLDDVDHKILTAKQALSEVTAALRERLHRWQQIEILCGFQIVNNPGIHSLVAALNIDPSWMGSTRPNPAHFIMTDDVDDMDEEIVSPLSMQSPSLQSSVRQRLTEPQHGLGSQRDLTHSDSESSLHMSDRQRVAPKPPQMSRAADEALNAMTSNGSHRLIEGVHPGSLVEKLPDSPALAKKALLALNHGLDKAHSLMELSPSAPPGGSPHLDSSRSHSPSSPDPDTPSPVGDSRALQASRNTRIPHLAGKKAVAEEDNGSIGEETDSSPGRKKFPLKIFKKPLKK
T2 sequence (Q96D31 whole entry): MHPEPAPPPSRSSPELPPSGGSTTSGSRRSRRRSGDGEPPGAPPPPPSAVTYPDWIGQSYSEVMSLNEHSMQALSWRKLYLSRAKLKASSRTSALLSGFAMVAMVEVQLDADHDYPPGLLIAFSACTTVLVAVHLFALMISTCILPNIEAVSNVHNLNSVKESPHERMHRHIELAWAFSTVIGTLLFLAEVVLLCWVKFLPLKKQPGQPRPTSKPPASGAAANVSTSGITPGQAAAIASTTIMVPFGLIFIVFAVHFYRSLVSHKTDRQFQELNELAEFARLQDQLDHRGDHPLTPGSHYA

Molecule: CN[C@@H]1[C@@H](O)[C@@H](O[C@@H]2[C@@H](O)[C@H](O[C@H]3O[C@H]([C@@H](C)O)[C@@H](O)[C@H](O)[C@H]3N)[C@@H](N)C[C@H]2N)OC[C@]1(C)O [G418]
- IC50 [1]: 520 nM
- IC50 ([1]; half-maximal inhibitory concentration for IP3-induced CRACM1 currents, cells perfused with G418, both phases of the current): 500 nM

Molecule: calmodulin
- suppression of the secondary phase of CRAC current [1]: secondary phase was observed

Molecule: Nc1nc2c(ncn2[C@@H]2O[C@H](COP(=O)(O)OP(=O)(O)OP(=O)(O)O)[C@@H](O)[C@H]2O)c(=O)[nH]1 [GTP]
- suppression of the secondary phase of CRAC current [1]: failed to suppress

Molecule: Nc1ncnc2c1ncn2[C@@H]1O[C@H](COP(=O)(O)OP(=O)(O)OP(=O)(O)O)[C@@H](O)[C@H]1O [ATP]
- suppression of the secondary phase of CRAC current [1]: failed to suppress

Molecule: NCCOB(c1ccccc1)c1ccccc1 [2-APB, 2-aminoethoxydiphenyl borate]
- doses that inhibit CRAC currents ([2]; unit as printed in b55): ≥ 10 mM
- doses that inhibit CRAC currents [2]: ≥ 0.01 mM
- doses with facilitatory effects on CRAC currents ([2]; low doses): ≤ 5 µM
- CRAC currents activated by 2-APB ([1]; 50 μM 2-APB, stores depleted by IP3 or kept full ([Ca2+]i 150 nM), cells grown without G418): large, transient CRAC currents
- CRACM1 currents induced by external application of 2-APB ([1]; 2 mM 2-APB as printed, cells grown in G418, no IP3-induced current): large CRACM1 currents
- activation time of 2-APB-induced current ([1]; high-resolution recording at fixed membrane potential): within a few seconds
- effect of 2-APB on G418-mediated suppression of CRAC currents ([1]; regardless of the filling state of stores): capable of overcoming the G418-mediated suppression
- 2-APB-induced current without store depletion [3]: not observed
